Consider 1 substance from US20240123022A1, “A STABLE ANTI-ANGIOGENIC AND ANTI-INFLAMMATORY PHARMACEUTICAL FORMULATION AND PHARMACEUTICAL COMBINATION FOR TREATMENT AND PREVENTION OF PSORIASIS” (priority 2021, published 2024).

Data set [1] is described as follows: Pre-formulation stability and maximum feasible concentration. The format is physicochemical. As to the method: This study is important in CMC preparation of any drug. The study was conducted to develop suitable pre-formulations of IS217 for four administration routes selected for in vivo studies and to determine maximum concentration of IS217 peptide which is feasible in these pre-formulation i.e., maximum feasible concentration (MFC). Four different aqueous based pre-formulations of IS217 like 10% v/v Tween 20, 20% v/v glycerol, 10% PG v/v in 0.9% NaCl solution and 0.9% NaCl alone were prepared and were first subjected to stability study at intended use of temperature (RT) for about 24 hours. HPLC based assay method was used to evaluate the stability.
Out of these, four aqueous based pre-formulation, 0.9% NaCl solution was selected for intravenous (IV) and intraperitoneal (IP) route and also the aqueous vehicle for co-solvent pre-formulation, based on its stability and suitability at physiological conditions. For subcutaneous (SC)/intramuscular route (IM), a co-solvent-based pre-formulation was developed. 10% propylene glycol (PG) in 0.9% NaCl solution was selected as pre-formulation for SC/IM. Maximum feasible concentration of IS217 in both the pre-formulations was greater than 50 mg/ml.

Data set [2] concerns IMQ induced psoriasis mouse model. As to the kind of experiment: Proof of concept efficacy study, SC and topical route, IMQ-induced psoriasis mice model. Format: in vivo, BALB/c mice. As to the method: The study objective was to validate the efficacy of IS 217 through Parental route and to study the efficacy of 1% IS 217 Cream Formulation through topically and to fix dose levels and treatment mode for further proof of concept studies and included with SC dose ([…] and 1.2 mg/kg) as proof of concept studies.
The study was conducted to evaluate efficacy of test compound IS217 (topical and subcutaneous route) on IMQ induced psoriasis mouse model.
Test items: IS217 cream formulation (topical treatment) and IS217 powder vials (subcutaneous treatment) along with placebo were provided.
Standard Drugs: 1.0.01% Batamethasone cream (Betnovate®); 100 mg/4 ml bevacuzimab (Avastin®)
Study animals: 8-9 weeks old male BALB/c mice were used for the study.
Treatment period was from day 1 to day 14. IMQ cream application: 5% IMQ cream, 65 mg was applied on shaved back and 5 mg on each ear during study period. Treatment regimen: treatment to be given twice a day-test drug high dose. 2-hour difference was taken between application of IMQ and application of test drug. 8-hour difference was taken between second application of test drug.
Required quantity of IS217 compounds was weighed on Sartorius weighing balance. Weighed amount was dissolved in 10% Propylene glycol.
• IMQ (Imigod, Glenmark pharmaceuticals) was weighed every day prior to application. • 65 mg of 5% IMQ cream was applied on shaved back of animals with help of spatula. 5 mg IMQ cream was applied on each ear of mouse. • IMQ application was done every day for 14 days and on day 15 studies were terminated. (Except for group 4 and group 5) • Group 4 was terminated on day 17 (post 14 days of treatment) • Group 5 was terminated on day 21 (post 14 days of treatment) • Group 4 and 5 received similar duration of test formulation as per group 3. • Group 4 received 17 days IMQ application, group 5 received 20 days IMQ application.
• Treatment to all the groups were done two hours post IMQ cream application • Formulation for topical application were weighted daily on Sartorius balance • Formulation for SC treatment was prepared fresh every day as per procedure mentioned above. • Standard drug Betamethasone was weighed daily and applied topically to respective treatment group • Bevacizumab was prepared fresh at the time of dosing. • All the treatments were given as per study design

For data set [3] the following is noted: human, microsomes.
Procedure: Metabolic stability assay was performed to determine in vitro half-life and intrinsic clearance of test item. […] Following centrifugation, the supernatant was analyzed on HPLC-UV.

Consider “H-FAKKFAKKFK-OH [IS217, H-Phe-Ala-Lys-Lys-Phe-Ala-Lys-Lys-Phe-Lys-OH]”, for which, in data set [1] (0.9% NaCl solution (IV, IP pre-formulation)), the Maximum feasible concentration entry is recorded as “greater than 50 mg/ml”. For the same substance, in data set [1] (10% propylene glycol in 0.9% NaCl solution (SC/IM pre-formulation)), the Maximum feasible concentration result is listed as “greater than 50 mg/ml”. Moreover, the “physical appearance of pre-formulations” value in data set [1] (four aqueous pre-formulations, RT, 24 hours) is recorded as “no visual changes”. Also, the “only epidermal hyperplasia (skin)” value in data set [2] (0.6 mg/kg SC) is reported as “reduced”. Also, in data set [2] (0.6 mg/kg and 1.2 mg/kg SC), the “IL-17 level in ear, skin, and serum matrix” value was “significant decrease”; the “TNF-α in ear homogenates samples” value is recorded as “decreased”; the ear thickness entry is reported as “significantly decreased”; the “overall efficacy versus the standard drug (Bevacizumab)” value was “comparable”. For the same substance, in data set [2] (0.6 mg/kg and 1.2 mg/kg SC), the “psoriatic score, ear weight” value was “significant decrease”; the “scaling, erythema and skin thickness” value was “decrease”. Moreover, in data set [2] (0.6 mg/kg and 1.2 mg/kg, vs vehicle), the “Epidermal hyperplasia, parakeratosis, leukocyte infiltration” value is recorded as “significantly decreased”. In addition, the “epidermal hyperplasia, parakeratosis in skin” value in data set [2] (1.2 mg/kg SC) is given as “reduced”. Moreover, the spleen weight result in data set [2] (SC administration) is “Decrease”. Moreover, the metabolic stability result in data set [3] is on record as “moderately metabolically stable”.
